Assay [1] concerns pSTAT6 in BEAS-2B human cell line. The assay can be described thus: Inhibition of IL-13 induced pSTAT6 in BEAS. The following applies: for IC50: Homo sapiens, BEAS-2B, 0.5 h, IL-13 trigger, 30 min, parent compound; for Fold difference parent vs predicted acid metabolite: ratio=IC50 predicted acid metabolite/IC50 ester. The assay is classed as cell-based. The method in brief:
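BEAS-2B cells grown 48 h, pre-treated 30 min with compound, then stimulated 30 min with IL-13. Lysate pSTAT6 (Tyr641) measured by sandwich ELISA. Eleven 5-fold dilutions from 10 μM, in duplicate, fitted to IC50.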

A further assay addresses JAK1 (Homo sapiens, UniProt P23458). The assay can be described thus: Biochemical potency on JAK1, TR-FRET (LANCE Ultra kinase assay). The following applies: ATP corresponding to Km; cell-free; read-out: JAK1 inhibitory activity (pIC50) (converted). The method in brief: (§1)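 ULight-JAK-1 (Tyr1023) peptide phosphorylation at Km ATP, 1.5 h r.t.; substrate solution held peptide 30/50/20/10 nM and ATP 20/0.7/0.2/12 μM, enzyme solution 0.15/0.083/0.025/0.144 ng/μL (JAK1/JAK2/JAK3/TYK2). EDTA stop, Eu-PT66 antibody TR-FRET read at 665 nm; 11-point 5-fold dilutions from 20 μM; IC50 by variable-slope fit.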

The next assay concerns the target T1, JAK3 (Homo sapiens, UniProt P52333).
T1 sequence (P52333 1-1124): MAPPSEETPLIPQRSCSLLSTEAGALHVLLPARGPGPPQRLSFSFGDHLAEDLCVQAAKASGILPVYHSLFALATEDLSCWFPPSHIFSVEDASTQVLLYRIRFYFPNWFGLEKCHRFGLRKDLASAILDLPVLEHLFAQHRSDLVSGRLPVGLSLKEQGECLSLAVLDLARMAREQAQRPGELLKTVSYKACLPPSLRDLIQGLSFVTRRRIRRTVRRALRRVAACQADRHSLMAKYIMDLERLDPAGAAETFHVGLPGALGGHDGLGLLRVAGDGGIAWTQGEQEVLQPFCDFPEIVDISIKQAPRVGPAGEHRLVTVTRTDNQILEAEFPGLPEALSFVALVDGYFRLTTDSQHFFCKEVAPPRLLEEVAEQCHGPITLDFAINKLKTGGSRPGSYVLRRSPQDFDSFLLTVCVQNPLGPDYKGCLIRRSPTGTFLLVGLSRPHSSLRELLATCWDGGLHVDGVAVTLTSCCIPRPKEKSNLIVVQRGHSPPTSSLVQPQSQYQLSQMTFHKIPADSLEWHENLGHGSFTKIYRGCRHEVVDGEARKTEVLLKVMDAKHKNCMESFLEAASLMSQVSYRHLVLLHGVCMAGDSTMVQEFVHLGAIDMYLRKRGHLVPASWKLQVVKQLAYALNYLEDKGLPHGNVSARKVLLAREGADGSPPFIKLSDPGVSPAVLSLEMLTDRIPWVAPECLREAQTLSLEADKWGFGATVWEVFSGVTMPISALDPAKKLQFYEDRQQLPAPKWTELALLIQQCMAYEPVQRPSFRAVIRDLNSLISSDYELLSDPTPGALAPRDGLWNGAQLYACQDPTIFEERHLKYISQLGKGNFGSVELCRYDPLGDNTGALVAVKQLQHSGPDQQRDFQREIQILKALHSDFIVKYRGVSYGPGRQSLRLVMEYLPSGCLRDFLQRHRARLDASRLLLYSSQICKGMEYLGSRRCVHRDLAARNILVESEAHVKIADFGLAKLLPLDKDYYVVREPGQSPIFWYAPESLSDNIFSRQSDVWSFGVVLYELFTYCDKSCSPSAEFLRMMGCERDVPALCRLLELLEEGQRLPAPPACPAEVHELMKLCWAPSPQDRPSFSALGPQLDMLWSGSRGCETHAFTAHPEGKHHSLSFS
The assay can be described thus: Biochemical potency on JAK3, TR-FRET (LANCE Ultra kinase assay). The following applies: ATP corresponding to Km; cell-free; read-out: JAK3 inhibitory activity (pIC50) (converted). The gist of the method: as §1
(TR-FRET usually uses a lanthanide donor and a delayed reading to cut background.)

For the next assay, the target named is JAK2 (Homo sapiens, UniProt O60674). The assay can be described thus: Biochemical potency on JAK2, TR-FRET (LANCE Ultra kinase assay). To be noted: ATP corresponding to Km; cell-free; read-out: JAK2 inhibitory activity (pIC50) (converted). The method in brief: as §1
A further assay concerns the target TYK2 (Homo sapiens, UniProt P29597). The assay can be described thus: Biochemical potency on Tyk2, TR-FRET (LANCE Ultra kinase assay). The following applies: ATP corresponding to Km; cell-free; read-out: TYK2 inhibitory activity (pIC50) (converted). The gist of the method: as §1
A further assay relates to OVA-challenged mice. The following applies: given as dry powder; cited from earlier work.
In assay [2] the test system is mouse model of chronic exposure to AAH allergens. The following applies: cited from earlier work.

SMILES strings stand for the structures.

JAK1, sequence (P23458 whole entry): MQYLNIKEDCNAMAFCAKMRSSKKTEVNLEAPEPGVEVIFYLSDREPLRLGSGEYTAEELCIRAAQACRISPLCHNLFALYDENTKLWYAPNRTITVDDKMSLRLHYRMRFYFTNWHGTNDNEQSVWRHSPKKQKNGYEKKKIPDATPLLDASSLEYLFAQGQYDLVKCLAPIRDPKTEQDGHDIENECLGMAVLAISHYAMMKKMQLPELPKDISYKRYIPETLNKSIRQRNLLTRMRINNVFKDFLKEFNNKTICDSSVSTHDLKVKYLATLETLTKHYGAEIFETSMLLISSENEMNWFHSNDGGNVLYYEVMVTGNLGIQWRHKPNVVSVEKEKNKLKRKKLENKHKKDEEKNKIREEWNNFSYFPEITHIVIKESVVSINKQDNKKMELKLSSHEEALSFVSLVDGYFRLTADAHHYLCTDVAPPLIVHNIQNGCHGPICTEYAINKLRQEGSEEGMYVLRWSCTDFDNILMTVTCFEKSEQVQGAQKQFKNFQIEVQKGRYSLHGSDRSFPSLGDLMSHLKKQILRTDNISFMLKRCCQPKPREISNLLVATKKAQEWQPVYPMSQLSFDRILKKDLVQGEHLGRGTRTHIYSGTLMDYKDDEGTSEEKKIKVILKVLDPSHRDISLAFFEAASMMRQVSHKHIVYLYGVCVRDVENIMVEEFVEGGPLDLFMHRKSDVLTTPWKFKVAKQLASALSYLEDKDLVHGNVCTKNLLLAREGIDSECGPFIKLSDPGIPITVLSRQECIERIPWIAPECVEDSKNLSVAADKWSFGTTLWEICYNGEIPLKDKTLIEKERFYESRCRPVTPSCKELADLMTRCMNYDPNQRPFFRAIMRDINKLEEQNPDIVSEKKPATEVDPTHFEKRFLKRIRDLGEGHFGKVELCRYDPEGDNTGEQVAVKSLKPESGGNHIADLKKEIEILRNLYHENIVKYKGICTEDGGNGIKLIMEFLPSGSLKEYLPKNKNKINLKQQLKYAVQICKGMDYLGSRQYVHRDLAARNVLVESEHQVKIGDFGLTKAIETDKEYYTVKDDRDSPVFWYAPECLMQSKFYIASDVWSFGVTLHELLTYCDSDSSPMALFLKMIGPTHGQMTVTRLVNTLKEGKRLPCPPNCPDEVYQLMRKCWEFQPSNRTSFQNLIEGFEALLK
JAK2, sequence (O60674 whole entry): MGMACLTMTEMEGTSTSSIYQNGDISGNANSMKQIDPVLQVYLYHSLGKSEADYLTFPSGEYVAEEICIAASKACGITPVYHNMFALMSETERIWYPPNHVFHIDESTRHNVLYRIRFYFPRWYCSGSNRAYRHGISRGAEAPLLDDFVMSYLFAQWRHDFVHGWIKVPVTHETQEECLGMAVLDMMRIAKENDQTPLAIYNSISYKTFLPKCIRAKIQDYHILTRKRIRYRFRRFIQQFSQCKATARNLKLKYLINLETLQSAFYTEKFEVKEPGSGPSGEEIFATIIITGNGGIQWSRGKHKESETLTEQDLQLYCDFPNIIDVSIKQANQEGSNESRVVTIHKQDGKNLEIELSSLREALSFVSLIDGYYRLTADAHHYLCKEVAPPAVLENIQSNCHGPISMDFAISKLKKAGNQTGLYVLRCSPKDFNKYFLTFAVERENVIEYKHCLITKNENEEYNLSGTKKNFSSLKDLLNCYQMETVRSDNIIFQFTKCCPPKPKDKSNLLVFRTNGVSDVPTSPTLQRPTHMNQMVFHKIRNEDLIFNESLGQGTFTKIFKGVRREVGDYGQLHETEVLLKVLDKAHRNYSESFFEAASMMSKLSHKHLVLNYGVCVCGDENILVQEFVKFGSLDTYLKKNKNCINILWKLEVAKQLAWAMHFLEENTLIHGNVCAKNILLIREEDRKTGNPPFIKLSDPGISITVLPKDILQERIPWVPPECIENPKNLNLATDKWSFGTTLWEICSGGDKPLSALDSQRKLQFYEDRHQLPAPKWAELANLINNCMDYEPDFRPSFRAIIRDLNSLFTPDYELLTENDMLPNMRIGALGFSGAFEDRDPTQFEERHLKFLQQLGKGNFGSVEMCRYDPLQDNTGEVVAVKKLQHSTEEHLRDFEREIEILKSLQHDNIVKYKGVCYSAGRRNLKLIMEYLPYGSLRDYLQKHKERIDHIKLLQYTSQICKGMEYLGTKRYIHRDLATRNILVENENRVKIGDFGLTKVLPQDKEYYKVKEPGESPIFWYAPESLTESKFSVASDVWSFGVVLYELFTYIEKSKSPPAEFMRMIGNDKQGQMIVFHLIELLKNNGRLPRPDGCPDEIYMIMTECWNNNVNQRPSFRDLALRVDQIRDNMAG
TYK2, sequence (P29597 whole entry): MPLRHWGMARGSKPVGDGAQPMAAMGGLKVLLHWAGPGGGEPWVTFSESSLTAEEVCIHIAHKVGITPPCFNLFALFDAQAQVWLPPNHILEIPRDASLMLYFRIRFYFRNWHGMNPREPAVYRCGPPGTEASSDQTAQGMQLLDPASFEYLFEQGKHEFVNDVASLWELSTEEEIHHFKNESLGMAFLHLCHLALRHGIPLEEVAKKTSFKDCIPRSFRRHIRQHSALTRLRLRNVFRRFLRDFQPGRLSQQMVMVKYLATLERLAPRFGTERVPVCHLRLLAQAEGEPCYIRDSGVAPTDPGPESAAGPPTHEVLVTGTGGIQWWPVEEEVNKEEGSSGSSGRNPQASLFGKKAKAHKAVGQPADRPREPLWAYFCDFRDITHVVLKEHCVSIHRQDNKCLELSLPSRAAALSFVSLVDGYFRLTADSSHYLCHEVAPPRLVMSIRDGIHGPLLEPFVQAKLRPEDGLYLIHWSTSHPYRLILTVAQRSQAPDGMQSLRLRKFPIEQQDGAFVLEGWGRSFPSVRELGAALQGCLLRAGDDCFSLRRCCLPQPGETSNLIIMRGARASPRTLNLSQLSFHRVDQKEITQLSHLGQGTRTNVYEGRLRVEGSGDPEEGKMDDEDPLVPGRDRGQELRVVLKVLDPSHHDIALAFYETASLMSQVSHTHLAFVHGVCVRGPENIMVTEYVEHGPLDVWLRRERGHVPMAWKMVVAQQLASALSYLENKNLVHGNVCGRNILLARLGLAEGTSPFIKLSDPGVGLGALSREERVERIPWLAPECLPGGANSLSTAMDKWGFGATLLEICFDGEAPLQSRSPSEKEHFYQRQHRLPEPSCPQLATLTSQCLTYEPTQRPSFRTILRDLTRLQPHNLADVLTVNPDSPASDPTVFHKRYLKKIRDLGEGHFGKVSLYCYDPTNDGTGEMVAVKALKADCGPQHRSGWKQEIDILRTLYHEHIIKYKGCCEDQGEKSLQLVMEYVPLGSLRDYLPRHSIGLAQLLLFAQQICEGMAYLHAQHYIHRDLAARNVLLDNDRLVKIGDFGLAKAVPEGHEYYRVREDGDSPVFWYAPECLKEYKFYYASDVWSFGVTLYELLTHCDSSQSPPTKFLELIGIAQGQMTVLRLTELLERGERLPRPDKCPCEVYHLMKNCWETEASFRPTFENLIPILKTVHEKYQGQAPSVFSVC

For the compound `CCOC(=O)[C@H]1CCN(CCNC(=O)c2nn(-c3cc4c(cc3OC)NCCO4)c3cc(-c4cnn5cccnc45)ncc23)C1` [Example 44, ethyl (S)-1-(2-(1-(6-methoxy-3,4-dihydro-2H-benzo[b][1,4]oxazin-7-yl)-6-(pyrazolo[1,5-a]pyrimidin-3-yl)-1H-pyrazolo[4,3-c]pyridine-3-carboxamido)ethyl)pyrrolidine-3-carboxylate], the IC50 is 5.01 to 50.1 nM in assay [1]; at most 5.01 nM at JAK1; at most 5.01 nM at JAK3; at most 5.01 nM at JAK2; 5.01 to 50.1 nM on TYK2. Besides, in assay [1], the “Fold difference parent vs predicted acid metabolite” value is recorded as “kkkk (ratio≥200)”.

In the case of `COc1cc2c(cc1-n1nc(C(=O)NCCN3CCC(CC(=O)O[C@@H]4CCN(CCF)C4)CC3)c3cnc(-c4cnn5cccnc45)cc31)OCCN2` [Example 52, (R)-1-(2-fluoroethyl)pyrrolidin-3-yl 2-(1-(2-(1-(6-methoxy-3,4-dihydro-2H-benzo[b][1,4]oxazin-7-yl)-6-(pyrazolo[1,5-a]pyrimidin-3-yl)-1H-pyrazolo[4,3-c]pyridine-3-carboxamido)ethyl)piperidin-4-yl)acetate], the IC50 in assay [1] was 5.01 to 50.1 nM; on JAK1, at most 5.01 nM; on JAK3, at most 5.01 nM; on JAK2, at most 5.01 nM; on TYK2, 5.01 to 50.1 nM. In addition, the “Fold difference parent vs predicted acid metabolite” value in assay [1] was “kkk (200>ratio≥100)”.

For the compound `CCOC(=O)CC1CCN(CCNC(=O)c2nn(-c3cc4c(cc3OC)NCCO4)c3cc(-c4cnn5cccnc45)ncc23)CC1` [Example 35, ethyl 2-(1-(2-(1-(6-methoxy-3,4-dihydro-2H-benzo[b][1,4]oxazin-7-yl)-6-(pyrazolo[1,5-a]pyrimidin-3-yl)-1H-pyrazolo[4,3-c]pyridine-3-carboxamido)ethyl)piperidin-4-yl)acetate], the IC50 was at most 5.01 nM in assay [1]; at most 5.01 nM at JAK1; at most 5.01 nM on JAK3; at most 5.01 nM on JAK2; 5.01 to 50.1 nM at TYK2. In addition, in assay [1], the “Fold difference parent vs predicted acid metabolite” value is “kkkk (ratio≥200)”.

For `COc1cc2c(cc1-n1nc(C(=O)NCCN3CCC(C(=O)OC4CCCC4)CC3)c3cnc(-c4cnn5cccnc45)cc31)OCCN2` [Example 12, cyclopentyl 1-(2-(1-(6-methoxy-3,4-dihydro-2H-benzo[b][1,4]oxazin-7-yl)-6-(pyrazolo[1,5-a]pyrimidin-3-yl)-1H-pyrazolo[4,3-c]pyridine-3-carboxamido)ethyl)piperidine-4-carboxylate], the IC50 was at most 5.01 nM in assay [1]; at most 5.01 nM on JAK1; at most 5.01 nM on JAK3; at most 5.01 nM at JAK2; 5.01 to 50.1 nM on TYK2. Also, the “Fold difference parent vs predicted acid metabolite” value in assay [1] is recorded as “kkkk (ratio≥200)”.

Take `CCOC(=O)C1CCN(CCOC(=O)Nc2nn(-c3cc4c(cc3OC)NCCS4)c3cc(-c4cnn5cccnc45)ncc23)CC1` [Example 4, ethyl 1-(2-(((1-(6-methoxy-3,4-dihydro-2H-benzo[b][1,4]thiazin-7-yl)-6-(pyrazolo[1,5-a]pyrimidin-3-yl)-1H-pyrazolo[4,3-c]pyridin-3-yl)carbamoyl)oxy)ethyl)piperidine-4-carboxylate]: the IC50 (in assay [1]; at JAK1; on JAK3; on JAK2; at TYK2) was at most 5.01 nM throughout. In addition, the “Fold difference parent vs predicted acid metabolite” value in assay [1] is given as “kk (100>ratio≥10)”.

As to `COc1cc2c(cc1-n1nc(C(=O)NCCN3CCC(C(=O)OC4CCN(C)CC4)CC3)c3cnc(-c4cnn5cccnc45)cc31)OCCN2` [Example 42, 1-methylpiperidin-4-yl 1-(2-(1-(6-methoxy-3,4-dihydro-2H-benzo[b][1,4]oxazin-7-yl)-6-(pyrazolo[1,5-a]pyrimidin-3-yl)-1H-pyrazolo[4,3-c]pyridine-3-carboxamido)ethyl)piperidine-4-carboxylate], the IC50 in assay [1] was 5.01 to 50.1 nM; at JAK1 it was at most 5.01 nM; on JAK3 it was at most 5.01 nM; at JAK2, at most 5.01 nM; on TYK2 it was 5.01 to 50.1 nM. Moreover, in assay [1], the “Fold difference parent vs predicted acid metabolite” value is given as “kkk (200>ratio≥100)”.

Regarding `COc1cc2c(cc1-n1nc(C(=O)NCCN3CCC(C(=O)OCC4CN(C)CCO4)CC3)c3cnc(-c4cnn5cccnc45)cc31)OCCN2` (centres unmarked) [Example 19, (4-methylmorpholin-2-yl)methyl 1-(2-(1-(6-methoxy-3,4-dihydro-2H-benzo[b][1,4]oxazin-7-yl)-6-(pyrazolo[1,5-a]pyrimidin-3-yl)-1H-pyrazolo[4,3-c]pyridine-3-carboxamido)ethyl)piperidine-4-carboxylate], the IC50 in assay [1] was at most 5.01 nM; at JAK1 it was at most 5.01 nM; at JAK3 it was at most 5.01 nM; at JAK2, at most 5.01 nM; on TYK2 it was 5.01 to 50.1 nM. For the same compound, the “Fold difference parent vs predicted acid metabolite” value in assay [1] was “kkkk (ratio≥200)”.

Turning to `CN(CCC#N)C1CCN(C(=O)Cn2cc(NC(=O)c3cnn4cccnc34)c(-c3cc(Cl)ccc3OC(F)F)n2)CC1` [iJak-381], in the assay on OVA-challenged mice, the BAL eosinophilia entry was “reduced”, the CCL11 entry is “reduced”, the Muc5AC entry is reported as “reduced” and the airway resistance entry is on record as “reduced”. Further, in assay [2], the BAL eosinophilia entry is listed as “reduced”, the CCL11 entry is recorded as “reduced”, the CXCL1 entry was “reduced” and the neutrophilia entry is given as “reduced”.

On to `CCSC(=O)C1CCN(CCNC(=O)c2nn(-c3cc4c(cc3OC)NCCO4)c3cc(-c4cnn5cccnc45)ncc23)CC1` [Example 59, S-ethyl 1-(2-(1-(6-methoxy-3,4-dihydro-2H-benzo[b][1,4]oxazin-7-yl)-6-(pyrazolo[1,5-a]pyrimidin-3-yl)-1H-pyrazolo[4,3-c]pyridine-3-carboxamido)ethyl)piperidine-4-carbothioate], for which the IC50 in assay [1] was at most 5.01 nM; on JAK1 it was at most 5.01 nM; at JAK3 it was at most 5.01 nM; on JAK2, at most 5.01 nM; on TYK2, 5.01 to 50.1 nM. For the same compound, the “Fold difference parent vs predicted acid metabolite” value in assay [1] is reported as “kkkk (ratio≥200)”.

Regarding `CCOC(=O)C1CCN(CCNC(=O)c2nn(-c3cc4c(cc3OC)NCCO4)c3cc(Nc4ncc[nH]c4=O)ncc23)CC1` [Example 58, ethyl 1-(2-(1-(6-methoxy-3,4-dihydro-2H-benzo[b][1,4]oxazin-7-yl)-6-((3-oxo-3,4-dihydropyrazin-2-yl)amino)-1H-pyrazolo[4,3-c]pyridine-3-carboxamido)ethyl)piperidine-4-carboxylate], the IC50 in assay [1] is 5.01 to 50.1 nM; at JAK1 it was at most 5.01 nM; at JAK3 it was at most 5.01 nM; on JAK2, at most 5.01 nM; on TYK2, 5.01 to 50.1 nM. In assay [1], the “Fold difference parent vs predicted acid metabolite” value is on record as “kkkk (ratio≥200)”.
